Bridge positions count the residues as written; N and C are the ends. Square brackets hold non-standard residues; d marks the D form. Peptide text beside a SMILES is read from it. Orn = NCCC[C@H](N)C(=O)O

The target in this experiment is T1, CLR fused to EYFP and RAMP2 fused to ECFP (Homo sapiens, UniProt O60895+Q16602).
T1 construct: EYFP; ECFP; expressed in transfected cells; host or cells: HEK-293 cells, transient co-transfection
Put plainly: cAMP assay (CRE luciferase reporter, HEK-293 cells transiently co-transfected with CLR and RAMP2). The class given is cell-based. The note with it: Table 2, cAMP assay; HEK-293, CLR/RAMP2, CRE luciferase, 3 h stimulation, normalized to [G^14]ADM(14-52). The procedure: HEK-293 cells (human embryonic kidney cells) were cultured in Ham's F-12/DMEM (1/1; v/v) containing 15% FCS under humidified atmosphere at 37° C. and 5% CO2 in 75 cm^2 cell culture flasks.
Cells were cultured in 75 cm^2 flasks to 70-80% confluency. 45 μl Metafectene® Pro was diluted in 900 μl Ham's F-12/DMEM (1/1; v/v) and incubated for 20 min at room temperature. 9000 ng plasmid containing DNA of CLR fused to EYFP and 3000 ng plasmid containing DNA of RAMP2 fused to ECFP were dissolved in 900 μl Ham's F-12/DMEM (1/1; v/v). The plasmid solution was mixed with the Metafectene® Pro solution and incubated for 25 min at room temperature. Medium was removed from the cells and replaced by 6 ml Ham's F-12/DMEM (1/1; v/v) containing 15% FCS. After addition of transfection solution the cells were incubated for 3 h under humidified atmosphere at 37° C. and 5% CO2.
For the second transfection 45 μl Metafectene® Pro was diluted in 900 μl Ham's F-12/DMEM (1/1; v/v) and incubated for 20 min at room temperature. 12000 ng of pGL4.29[luc2P/CRE/Hygro] plasmid containing DNA for the luciferase reporter gene luc2P (with CRE promotor region) were dissolved in 900 μl Ham's F-12/DMEM (1/1; v/v). The plasmid solution was mixed with the Metafectene® Pro solution and incubated for 25 min at room temperature. Medium was removed from the cells and replaced by 6 ml Ham's F-12/DMEM (1/1; v/v) containing 15% FCS. After addition of transfection solution the cells were incubated under humidified atmosphere at 37° C. and 5% CO2 over night.
For the coating of 96-well-plates 50 μl of a Poly-D-Lysine solution (1 ml stock solution of Poly-D-Lysin-hydrobromid/10 ml DPBS) were pipetted in each well and incubated for 40 min. After removal of the Poly-D-Lysine each well was washed with 50 μl DPBS. Transiently transfected cells were detached from the cell culture flask by removal of the medium, twofold washing with 5 m1 DPBS and resuspending in 13 ml Ham's F-12/DMEM (1/1; v/v) containing 15% FCS. 90000 to 120000 cells in 150 μl Ham's F-12/DMEM (1/1; v/v) containing 15% FCS were seeded per well and the plates were incubated under humidified atmosphere at 37° C. and 5% CO2 over night.
For each ligand a serial dilution giving eight different concentrations was prepared using Ham's F-12/DMEM (1/1; v/v). Before stimulation the medium on the cells was replaced by 100 μl Ham's F-12/DMEM (1/1; v/v) and the plates were incubated for 1 h under humidified atmosphere at 37° C. and 5% CO2. For stimulation the medium was removed again and the cells were incubated for 3 h in 80 μl of ligand-solution under humidified atmosphere at 37° C. and 5% CO2. In addition 80 μl of a 5 μM forskolin solution (in Ham's F-12/DMEM (1/1; v/v)) was used as a positive control and 80 μl of Ham's F-12/DMEM (1/1; v/v) as a negative control. Each concentration and the controls were tested as triplicates.
After 3 h of stimulation, the solutions were removed and the cells were washed with 50 μl of Ham's F-12/DMEM (1/1; v/v) per well. After 10 min incubation in 30 μl of Ham's F-12/DMEM (1/1; v/v) at room temperature, 30 μl of luciferase-solution (ONE-Glo™ Luciferase Assay System) was added and the luminescence was directly measured using an Infinite M200 (Tecan).
Data analysis of the luminescence measurement was carried out with GraphPad Prism 5. Therefore the measured luminescence values of each plate were first corrected on the base of the respective average of forskolin stimulation. Afterwards they were normalized to [G^14]ADM(14-52) which was used as standard peptide in every assay. After correction and normalization data was analysed using non-linear regression giving dose-response curves for each tested ligand.

T1 sequence (Q16602 23-461): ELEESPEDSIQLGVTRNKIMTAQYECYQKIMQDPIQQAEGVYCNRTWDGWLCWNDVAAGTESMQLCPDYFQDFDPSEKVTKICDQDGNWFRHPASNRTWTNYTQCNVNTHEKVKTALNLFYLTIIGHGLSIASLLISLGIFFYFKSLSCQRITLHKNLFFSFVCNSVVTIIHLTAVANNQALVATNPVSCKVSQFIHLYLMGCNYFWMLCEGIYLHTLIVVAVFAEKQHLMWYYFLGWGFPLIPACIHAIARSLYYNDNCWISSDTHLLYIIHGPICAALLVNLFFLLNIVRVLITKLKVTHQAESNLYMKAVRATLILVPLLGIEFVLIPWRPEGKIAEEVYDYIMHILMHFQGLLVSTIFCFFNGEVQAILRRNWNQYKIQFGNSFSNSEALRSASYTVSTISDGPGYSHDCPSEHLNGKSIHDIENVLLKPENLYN
T1 sequence (O60895 43-175): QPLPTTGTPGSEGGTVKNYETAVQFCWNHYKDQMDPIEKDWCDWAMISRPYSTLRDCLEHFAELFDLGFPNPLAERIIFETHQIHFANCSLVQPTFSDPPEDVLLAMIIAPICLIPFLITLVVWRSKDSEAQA

`CC[C@H](C)[C@H](NC(=O)[C@H](CCC(N)=O)NC(=O)[C@H](Cc1c[nH]cn1)NC(=O)[C@H](C)NC(=O)[C@H](CC(C)C)NC(=O)[C@H](CCCCN)NC(=O)[C@H](CCC(N)=O)NC(=O)[C@@H](NC(=O)[C@@H](NC(=O)[C@@H]1CCC(=O)NCCC[C@H](NC(=O)CNC(=O)CN)C(=O)N[C@@H](CCCNC(=N)N)C(=O)N[C@@H](Cc2ccccc2)C(=O)NCC(=O)N[C@@H]([C@@H](C)O)C(=O)N1)[C@@H](C)O)C(C)C)C(=O)N[C@@H](Cc1ccc(O)cc1)C(=O)N[C@@H](CCC(N)=O)C(=O)N[C@@H](Cc1ccccc1)C(=O)N[C@H](C(=O)N[C@@H](CC(=O)O)C(=O)N[C@@H](CCCCN)C(=O)N[C@@H](CC(=O)O)C(=O)N[C@@H](CCCCN)C(=O)N[C@@H](CC(=O)O)C(=O)N[C@@H](CC(N)=O)C(=O)N[C@H](C(=O)N[C@@H](C)C(=O)N1CCC[C@H]1C(=O)N[C@@H](CCCNC(=N)N)C(=O)N[C@@H](CO)C(=O)N[C@@H](CCCCN)C(=O)N[C@H](C(=O)N[C@@H](CO)C(=O)N1CCC[C@H]1C(=O)N[C@@H](CCC(N)=O)C(=O)NCC(=O)N[C@@H](Cc1ccc(O)cc1)C(N)=O)[C@@H](C)CC)C(C)C)[C@@H](C)O` [Example 20, ((2S,5S,11S,14S,22S)-22-(2-(2-aminoacetamido)acetamido)-5-benzyl-2-(3-guanidinopropyl)-11-((R)-1-hydroxyethyl)-3,6,9,12,17,23-hexaoxo-1,4,7,10,13,18-hexaazacyclotricosane-14-carbonyl)-L-threonyl-ADM(22-52)] (H-GG[Orn]RFGTETVQKLAHQIYQFTDKDKDNVAPRSKISPQGY-NH2; lactam 3-8) showed an EC50 of 9.1 nM. The figure for `CC[C@H](C)[C@H](NC(=O)[C@H](CCC(N)=O)NC(=O)[C@H](Cc1c[nH]cn1)NC(=O)[C@H](C)NC(=O)[C@H](CC(C)C)NC(=O)[C@H](CCCCN)NC(=O)[C@H](CCC(N)=O)NC(=O)[C@@H](NC(=O)[C@@H](NC(=O)[C@@H]1CCCCNC(=O)CC[C@H](NC(=O)CNC(=O)CN)C(=O)N[C@@H](CCCNC(=N)N)C(=O)N[C@@H](Cc2ccccc2)C(=O)NCC(=O)N[C@@H]([C@@H](C)O)C(=O)N1)[C@@H](C)O)C(C)C)C(=O)N[C@@H](Cc1ccc(O)cc1)C(=O)N[C@@H](CCC(N)=O)C(=O)N[C@@H](Cc1ccccc1)C(=O)N[C@H](C(=O)N[C@@H](CC(=O)O)C(=O)N[C@@H](CCCCN)C(=O)N[C@@H](CC(=O)O)C(=O)N[C@@H](CCCCN)C(=O)N[C@@H](CC(=O)O)C(=O)N[C@@H](CC(N)=O)C(=O)N[C@H](C(=O)N[C@@H](C)C(=O)N1CCC[C@H]1C(=O)N[C@@H](CCCNC(=N)N)C(=O)N[C@@H](CO)C(=O)N[C@@H](CCCCN)C(=O)N[C@H](C(=O)N[C@@H](CO)C(=O)N1CCC[C@H]1C(=O)N[C@@H](CCC(N)=O)C(=O)NCC(=O)N[C@@H](Cc1ccc(O)cc1)C(N)=O)[C@@H](C)CC)C(C)C)[C@@H](C)O` [Example 1, ((2S,5S,11S,14S,23S)-23-(2-(2-aminoacetamido)acetamido)-5-benzyl-2-(3-guanidinopropyl)-11-((R)-1-hydroxyethyl)-3,6,9,12,20,24-hexaoxo-1,4,7,10,13,19-hexaazacyclotetracosane-14-carbonyl)-L-threonyl-ADM(22-52)] (H-GGERFGTKTVQKLAHQIYQFTDKDKDNVAPRSKISPQGY-NH2; lactam 3-8) is 31 nM.
